Laboratory results as given in ChEMBL document CHEMBL6083286, “Discovery of ERD-12310A as an Exceptionally Potent and Orally Efficacious PROTAC Degrader of Estrogen Receptor α (ERα)” (J Med Chem, 2024).
Activity calls are given as the source filed them. The calls are words filed in the database; no cut-off is given here.

How the values were obtained:
[1] = biological target: Voltage-gated inwardly rectifying potassium channel KCNH2 (Homo sapiens, UniProt Q12809); experiment: Inhibition of hERG in HEK293 cells by whole-cell patch clamp assay; assay type: toxicity, cell-based
Voltage-gated inwardly rectifying potassium channel KCNH2, sequence (Q12809 whole entry): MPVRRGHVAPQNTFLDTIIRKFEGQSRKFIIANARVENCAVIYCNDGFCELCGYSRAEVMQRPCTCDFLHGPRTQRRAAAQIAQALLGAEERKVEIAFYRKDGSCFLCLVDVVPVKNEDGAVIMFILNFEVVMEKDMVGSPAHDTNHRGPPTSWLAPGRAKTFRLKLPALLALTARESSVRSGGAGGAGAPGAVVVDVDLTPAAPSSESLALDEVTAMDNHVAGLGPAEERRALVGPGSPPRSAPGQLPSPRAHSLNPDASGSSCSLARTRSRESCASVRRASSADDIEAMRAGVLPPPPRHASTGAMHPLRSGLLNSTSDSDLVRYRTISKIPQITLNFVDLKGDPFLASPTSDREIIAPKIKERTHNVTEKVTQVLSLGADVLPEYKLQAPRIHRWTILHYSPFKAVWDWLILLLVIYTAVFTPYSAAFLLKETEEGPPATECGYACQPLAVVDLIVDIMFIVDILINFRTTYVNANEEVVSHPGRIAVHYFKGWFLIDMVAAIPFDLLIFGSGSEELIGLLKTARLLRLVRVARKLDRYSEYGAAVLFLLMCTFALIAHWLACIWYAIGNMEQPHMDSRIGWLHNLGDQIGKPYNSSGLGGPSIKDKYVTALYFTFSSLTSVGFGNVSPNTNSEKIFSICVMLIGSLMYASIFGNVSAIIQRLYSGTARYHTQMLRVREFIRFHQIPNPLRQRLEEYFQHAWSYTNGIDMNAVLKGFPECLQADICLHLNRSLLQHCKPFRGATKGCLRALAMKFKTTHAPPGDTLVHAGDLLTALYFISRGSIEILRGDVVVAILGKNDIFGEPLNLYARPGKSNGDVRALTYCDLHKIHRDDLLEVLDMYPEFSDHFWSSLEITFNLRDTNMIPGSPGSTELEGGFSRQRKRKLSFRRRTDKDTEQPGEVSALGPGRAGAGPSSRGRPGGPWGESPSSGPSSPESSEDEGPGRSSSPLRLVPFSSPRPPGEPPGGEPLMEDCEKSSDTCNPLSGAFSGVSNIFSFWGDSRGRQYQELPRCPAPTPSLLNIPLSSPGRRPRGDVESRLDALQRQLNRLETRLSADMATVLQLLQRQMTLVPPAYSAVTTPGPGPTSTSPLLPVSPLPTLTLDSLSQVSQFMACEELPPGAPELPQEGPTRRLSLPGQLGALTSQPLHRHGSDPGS

[2] = Oral bioavailability in dog at 3 mg/kg measured upto 24 hrs by LC-MS/MS analysis; assay type: ADME, organism-based, Canis lupus familiaris; conditions: in vivo
[3] = biological target: T1, Protein cereblon/Estrogen receptor (Homo sapiens, UniProt P03372+Q96SW2); experiment: PROTAC activity at CRBN/ERalpha in human MCF7 cells assessed as reduction in ERalpha protein level at 5 nM measured for 4 hrs in presence of PR-171 by Western blot analysis; assay type: cell-based
T1 sequence (P03372 whole entry, looked up): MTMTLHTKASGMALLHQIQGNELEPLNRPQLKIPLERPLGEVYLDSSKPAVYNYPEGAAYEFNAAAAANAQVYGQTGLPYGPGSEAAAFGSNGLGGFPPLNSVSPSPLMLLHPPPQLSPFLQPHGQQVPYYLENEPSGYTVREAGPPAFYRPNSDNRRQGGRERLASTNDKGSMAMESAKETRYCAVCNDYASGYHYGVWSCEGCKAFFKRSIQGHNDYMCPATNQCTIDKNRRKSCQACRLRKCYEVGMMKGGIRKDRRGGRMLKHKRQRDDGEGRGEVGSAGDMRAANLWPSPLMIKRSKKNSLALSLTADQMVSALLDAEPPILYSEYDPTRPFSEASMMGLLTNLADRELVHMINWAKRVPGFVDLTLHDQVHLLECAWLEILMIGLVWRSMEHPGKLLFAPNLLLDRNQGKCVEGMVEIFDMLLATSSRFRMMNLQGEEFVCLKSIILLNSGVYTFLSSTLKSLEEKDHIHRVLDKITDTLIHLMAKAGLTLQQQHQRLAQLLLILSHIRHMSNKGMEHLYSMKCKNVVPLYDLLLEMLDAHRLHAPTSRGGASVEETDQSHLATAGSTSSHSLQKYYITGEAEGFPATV
T1 sequence (Q96SW2 whole entry, looked up): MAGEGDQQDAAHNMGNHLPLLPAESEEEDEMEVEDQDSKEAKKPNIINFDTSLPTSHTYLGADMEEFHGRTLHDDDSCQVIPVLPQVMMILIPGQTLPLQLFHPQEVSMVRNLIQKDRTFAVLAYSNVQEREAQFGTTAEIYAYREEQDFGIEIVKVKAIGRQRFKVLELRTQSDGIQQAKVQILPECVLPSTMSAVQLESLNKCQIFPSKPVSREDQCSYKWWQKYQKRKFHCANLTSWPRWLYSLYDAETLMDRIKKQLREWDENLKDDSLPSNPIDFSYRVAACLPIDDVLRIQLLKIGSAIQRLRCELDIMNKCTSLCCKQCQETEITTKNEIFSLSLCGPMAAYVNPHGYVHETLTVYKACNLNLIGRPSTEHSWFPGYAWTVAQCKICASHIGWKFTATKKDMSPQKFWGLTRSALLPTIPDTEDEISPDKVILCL

[4] = biological target: Cytochrome P450 3A4 (Homo sapiens, UniProt P08684); experiment: Inhibition of CYP3A4 in human liver microsomes using midazolam as substrate preincubated for 5 mins followed by NADPH addition and measured after 10 mins by LC-MS/MS analysis; assay type: ADME, Microsome
Cytochrome P450 3A4, sequence (P08684 whole entry): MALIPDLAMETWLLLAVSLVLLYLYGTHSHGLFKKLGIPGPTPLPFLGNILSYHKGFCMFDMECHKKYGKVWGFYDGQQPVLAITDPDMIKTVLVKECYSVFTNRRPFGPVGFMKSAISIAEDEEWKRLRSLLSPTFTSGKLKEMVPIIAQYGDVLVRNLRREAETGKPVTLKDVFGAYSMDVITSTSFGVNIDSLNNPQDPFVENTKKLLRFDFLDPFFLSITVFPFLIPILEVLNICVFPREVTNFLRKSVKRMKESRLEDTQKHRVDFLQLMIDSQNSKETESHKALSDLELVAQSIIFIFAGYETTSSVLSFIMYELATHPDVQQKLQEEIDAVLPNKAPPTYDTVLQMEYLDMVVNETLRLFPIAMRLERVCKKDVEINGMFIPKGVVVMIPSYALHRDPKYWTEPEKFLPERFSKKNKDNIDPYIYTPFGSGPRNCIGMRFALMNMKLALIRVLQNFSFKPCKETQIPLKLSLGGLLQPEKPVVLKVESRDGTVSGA

[5] = tested on: Protein cereblon/Estrogen receptor (Homo sapiens), P03372+Q96SW2 [Y537S]; experiment: In vivo PROTAC activity at CRBN/ESR1 Y537S mutant in SCID mouse xenografted with human MCF7 cells assessed as reduction in ESR1 Y537S level in tumor at 10 to 30 mg/kg, po administered once daily for 3 days measured after 24 hrs by Western blot analysis; assay type: functional, organism-based; set-up: scale not given: the % may be the effect or the level left; conditions: dose 10-30 mg/kg, time […]
[6] = Half life in dog at 3 mg/kg, po or 1 mg/kg, iv measured upto 24 hrs by LC-MS/MS analysis; assay type: ADME, organism-based, Canis lupus familiaris; conditions: in vivo
[7] = biological target: T2, Cytochrome P450 2B6 (Homo sapiens, UniProt P20813); experiment: Inhibition of CYP2B6 in human liver microsomes preincubated for 5 mins followed by NADPH addition and measured after 10 mins by LC-MS/MS analysis; assay type: ADME, Microsome
T2 sequence (P20813 whole entry): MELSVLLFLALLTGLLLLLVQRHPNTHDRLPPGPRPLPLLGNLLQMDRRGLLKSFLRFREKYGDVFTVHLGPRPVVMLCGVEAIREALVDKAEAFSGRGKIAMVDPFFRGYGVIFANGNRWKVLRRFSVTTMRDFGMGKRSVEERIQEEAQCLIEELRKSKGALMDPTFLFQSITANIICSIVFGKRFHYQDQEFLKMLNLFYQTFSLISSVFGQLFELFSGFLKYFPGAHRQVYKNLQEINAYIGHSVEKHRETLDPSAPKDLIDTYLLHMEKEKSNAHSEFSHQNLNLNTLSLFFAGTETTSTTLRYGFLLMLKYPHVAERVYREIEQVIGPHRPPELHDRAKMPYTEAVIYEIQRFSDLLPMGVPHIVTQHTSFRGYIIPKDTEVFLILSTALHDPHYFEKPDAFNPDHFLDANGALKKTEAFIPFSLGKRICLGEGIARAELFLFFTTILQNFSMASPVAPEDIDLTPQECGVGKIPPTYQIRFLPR

[8] = Drug concentration in SCID mouse plasma at 30 mg/kg, po administered once daily for 3 days measured after 24 hrs by LC-MS/MS analysis; assay type: ADME, organism-based
[9] = Stability in dog plasma assessed as half life; assay type: ADME, cell-free, Canis lupus familiaris
[10] = tested on: MCF7; experiment: Antitumor activity against human MCF7 cells expressing ESR1 Y537S mutant xenografted in SCID mouse assessed as tumor growth inhibition at 30 mg/kg, po administered 5 days a week for 7 weeks; assay type: functional; conditions: MCF7, 1176 h, read-out: TGI
[11] = tested on: MCF7; experiment: Antiproliferative activity against human MCF7 cells assessed as cell growth inhibition incubated for 4 days by crystal violet staining based assay; assay type: functional; conditions: time 4.0 day
[12] = tested on: Protein cereblon/Estrogen receptor (Homo sapiens), P03372+Q96SW2 [Y537S]; experiment: In vivo PROTAC activity at CRBN/ESR1 Y537S mutant in SCID mouse xenografted with human MCF7 cells assessed as reduction in ESR1 Y537S level in tumor at 10 mg/kg, po measured after 24 hrs by Western blot analysis; assay type: functional, organism-based; set-up: scale not given: the % may be the effect or the level left
[13] = biological target: T1, Protein cereblon/Estrogen receptor; experiment: In-vivo PROTAC activity at CRBN/ERalpha in SCID mouse xenografted with human MCF7 cells assessed as reduction in ERalpha level in tumor at 10 mg/kg, po administered daily for 3 days and measured after 6 hrs by Western blot analysis; assay type: functional, organism-based; set-up: scale not given: the % may be the effect or the level left; conditions: time 78.0 hrs
[14] = Volume of distribution at steady state in rat at 3 mg/kg, po or 1 mg/kg, iv measured upto 24 hrs by LC-MS/MS analysis; assay type: ADME, organism-based; conditions: in vivo
[15] = Stability in human plasma assessed as half life; assay type: ADME, cell-free
[16] = Metabolic stability mouse liver microsome assessed as half life; assay type: ADME; conditions: microsomes
[17] = biological target: Cytochrome P450 2C19 (Homo sapiens, UniProt P33261); experiment: Inhibition of CYP2C19 in human liver microsomes incubated for 5 mins in presence of NADPH by LC-MS/MS analysis; assay type: ADME, Microsome
Cytochrome P450 2C19, sequence (P33261 whole entry): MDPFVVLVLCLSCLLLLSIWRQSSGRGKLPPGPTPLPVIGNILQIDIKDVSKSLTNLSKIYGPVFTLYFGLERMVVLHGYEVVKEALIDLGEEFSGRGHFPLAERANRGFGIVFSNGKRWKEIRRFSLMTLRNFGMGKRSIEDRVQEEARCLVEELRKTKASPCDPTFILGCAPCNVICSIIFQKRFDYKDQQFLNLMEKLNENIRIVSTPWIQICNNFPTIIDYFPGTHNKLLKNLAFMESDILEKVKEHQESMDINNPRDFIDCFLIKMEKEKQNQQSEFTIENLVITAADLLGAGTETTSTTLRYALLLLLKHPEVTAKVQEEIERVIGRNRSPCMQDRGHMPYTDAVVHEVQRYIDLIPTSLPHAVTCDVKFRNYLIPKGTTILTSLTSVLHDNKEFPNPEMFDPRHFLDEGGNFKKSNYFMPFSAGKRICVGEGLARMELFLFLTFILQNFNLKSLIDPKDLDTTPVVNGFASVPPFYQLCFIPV

[18] = Toxicity in SCID mouse implanted with human MCF7 cells ESR1 Y537S mutant assessed as change in body weight at 3 to 30 mg/kg, po administered 5 days a week for 7 weeks; assay type: organism-based; conditions: in vivo, 1176 h, dose 3-30 mg/kg
[19] = biological target: T1, Protein cereblon/Estrogen receptor; experiment: PROTAC activity at CRBN/ERalpha in human MCF7 cells assessed as reduction in ERalpha protein level at 5 nM measured for 4 hrs by Western blot analysis; assay type: cell-based
[20] = Cmax in rat at 3 mg/kg, po or 1 mg/kg, iv measured upto 24 hrs by LC-MS/MS analysis; assay type: ADME, organism-based; conditions: in vivo
[21] = tested on: MCF7; experiment: Antitumor activity against human MCF7 cells expressing ESR1 Y537S mutant xenografted in SCID mouse assessed as tumor growth inhibition at 10 mg/kg, po administered 5 days a week for 5 weeks; assay type: functional; conditions: MCF7, 840 h, read-out: TGI
[22] = biological target: T3, Cytochrome P450 2C8 (Homo sapiens, UniProt P10632); experiment: Inhibition of CYP2C8 in human liver microsomes incubated for 5 mins in presence of NADPH by LC-MS/MS analysis; assay type: ADME, Microsome
T3 sequence (P10632 whole entry): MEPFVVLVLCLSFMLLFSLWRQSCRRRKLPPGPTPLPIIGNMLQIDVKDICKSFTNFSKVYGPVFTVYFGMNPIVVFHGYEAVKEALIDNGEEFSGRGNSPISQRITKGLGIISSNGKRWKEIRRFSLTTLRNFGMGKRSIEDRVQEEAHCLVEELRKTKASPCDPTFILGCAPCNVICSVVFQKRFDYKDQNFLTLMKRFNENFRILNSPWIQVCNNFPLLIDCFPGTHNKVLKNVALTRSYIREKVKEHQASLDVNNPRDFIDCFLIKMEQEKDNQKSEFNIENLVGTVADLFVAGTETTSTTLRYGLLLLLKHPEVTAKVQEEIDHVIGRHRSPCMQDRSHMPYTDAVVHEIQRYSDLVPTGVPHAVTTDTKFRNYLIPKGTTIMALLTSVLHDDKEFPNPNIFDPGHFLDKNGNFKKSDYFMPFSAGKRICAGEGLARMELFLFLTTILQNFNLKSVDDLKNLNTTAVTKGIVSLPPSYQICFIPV

[23] = Oral bioavailability in rat at 3 mg/kg measured upto 24 hrs by LC-MS/MS analysis; assay type: ADME, organism-based; conditions: in vivo
[24] = Half life in mouse at 3 mg/kg, po or 1 mg/kg, iv measured upto 24 hrs by LC-MS/MS analysis; assay type: ADME, organism-based; conditions: in vivo
[25] = Volume of distribution at steady state in mouse at 3 mg/kg, po or 1 mg/kg, iv measured upto 24 hrs by LC-MS/MS analysis; assay type: ADME, organism-based; conditions: in vivo

For `O=C1CC[C@H](N2Cc3c(ccc4c3OCC43CCN(C[C@@H]4CCC5(CCN(c6ccc([C@@H]7c8ccc(O)cc8CC[C@@H]7c7ccccc7)cc6)CC5)OC4)CC3)C2=O)C(=O)N1`, the IC50 [1] was > 10 µM, the F [2] was 49% and the Activity [3] was “inactive”. For the same molecule, the IC50 [4] was > 10 µM, the Activity [5] was 74% and the t1/2 [6] was 23.2 h. The IC50 [7] was 2.5 µM, the concentration at 96 h [8] was 72 ng/mL and the t1/2 [9] was > 4 h. The inhibition in vivo at 30 mg/kg [10] was 100%, the Activity [11] was “Active” and the Activity [12] was 71%. For the same molecule, the Activity [13] was 66%, the Vdss [14] was 1.9 L/kg and the t1/2 [15] was > 4 h. The t1/2 [16] was > 1 h, the IC50 [17] was 6 µM and the Activity [18] was “Non-toxic”. The Activity [19] was “Active”, the Cmax [20] was 57.7 ng/mL and the inhibition in vivo at 10 mg/kg [21] was 75%. The IC50 [22] was > 10 µM, the F [23] was 10% and the t1/2 [24] was 13.3 h. The Vdss [25] was 5.8 L/kg.
